Results from US11426375B2, “Substituted bisphenyl butanoic ester derivatives as NEP inhibitors” (NOVARTIS AG, priority 2019, dated 2022).

How the values were obtained:
[1] = set-up: species or system Sprague Dawley rats; conditions: rat, in vivo, po, 10 mg/kg
Procedure: A parallel study design consisting of four groups with three animals per group was conducted to examine the pharmacokinetic properties of the compounds of the present disclosure.
The drugs were administered to each group are as follows: compound I-1 (Group 1), compound I-2 (Group 2), compound I-3 (Group 3), and AHU377 (sacubitril) (Group 4). Each animal received a single 10 mg/kg (5 ml/kg) oral gavage dose of the specified study drug. The animal weights ranged from […] at the beginning of the study. Compound I-1, compound I-2, compound I-3, and AHU377 were formulated in 0.5% methylcellulose (400 cp) and 0.1% Tween 80 (w,v) in water was used as the vehicle. Water bath sonication was applied to facilitate dispersing for all four study drugs. Blood samples for pharmacokinetics analysis were collected at t=0.25, 0.5, 1, 2, 4, 8, and 24 hours (±5%) post dose administration. Plasma was prepared by collecting whole blood samples into tubes containing EDTA and NaF (final concentrations: ˜1 mg/mL (K2EDTA) and ˜2 mg/mL (NaF)). These tubes were kept in an ice bath prior to centrifugation at approximately 2,000 rcf for 10 minutes at approximately 5° C. To each resultant plasma sample, 50% phosphoric acid (v/v) was added to achieve a final concentration of 1% (v,v).
[^13C4]-LBQ657 was added as an internal standard to the pharmacokinetic (PK) samples and calibration standards prior to analysis by LC-MS/MS. The LC-MS system consisted of an API6500+ mass spectrometer coupled to an Agilent 1290 HPLC system equipped with a CTC Pal autosampler. The mass spectrometer was operated in the positive ion mode with a TESI ion source.

[2] = Hygroscopicity, weight gain at 90% RH; format: physicochemical; conditions: after exposure to 90% RH
Source text: The weight gain of compound I-1 after exposure to 90% RH (relatively humidity) was 0.34%, while that of AHU377 under the same conditions was 3.4%. […] On the other hand, AHU377 is a wax-like solid, which needs to be properly processed before further pharmaceutical processing such as weighing, dispensing and filling.

[3] = system: DSS (Dahl Salt Sensitive) rats; test: In vivo efficacy study on blood pressure in DSS rats (telemetry; systolic and diastolic pressure); conditions: for Systolic blood pressure, mean / Diastolic blood pressure, Mean: Compound I-1 50 mg/kg; for Systolic blood pressure, mean: alone or combined, QD PO
Source text: An in vivo study ascertains the effects on blood pressure in DSS (Dahl Salt Sensitive) rats. The DSS hypertensive rat model is a model of hypertension that is sensitive to dietary salt (NaCl), see for example Rapp (1982) Hypertension 4:753-763 and Hegde et al. BMC Pharmacology 2011, 11 (Suppl 1):P33. Under pentobarbital sodium anesthesia, a DSI (Data Sciences International, St. Paul, Minn.) telemetric probe is implanted. The transducer is inserted into abdominal aorta, and the transmitter is implanted into abdominal cavity. During postoperative recovery period, close observation is performed. Analgesics (Buprenorphine, 0.1-0.5 mg/kg, once per day for 1 day) and preventive antibiotics (Cephradine, 10˜15 mg/kg, ip., once per day for 3 days) are administered on a daily basis. Before the treatment period, all animals are fed with 8% high salt food for about 2 weeks. Test compound is formulated in 0.5% HPC and administered by oral gavage. Five groups of animals are treated as follows: 1. Vehicle, 0.5% HPC, QD, PO, N=5 2. Valsartan, 30 mg/kg, QD, PO, N=5 3. Compound I-1, 50 mg/kg, QD, PO, N=6 4. Compound I-1, 15 mg/kg+Valsartan, 30 mg/kg, QD, PO, N=5 5. Compound I-1, 50 mg/kg+Valsartan, 30 mg/kg, QD, PO, N=5 N is the number of animals. The mean arterial pressure, systolic pressure, diastolic pressure and heart rate after administration for each animal are measured. Interim results obtained before full study completion are shown in Tables 18 and 19 (full cohort of animals beyond day 7 were reduced due to some loss). Mean measurements of the systolic (Table 18) and diastolic (Table 19) blood pressures, for the baseline day prior to first treatment and for treatment days 1 and 7 only, in each treatment group, are shown. Measurements obtained every other hour only are shown.

CCOC(=O)[C@H](C)C[C@@H](Cc1ccc(-c2ccccc2)cc1)NC(=O)CCC(=O)N[C@@H](CC(C)C)C(=O)O [Compound I-1, (4-(((2S,4R)-1-([1,1′-biphenyl]-4-yl)-5-ethoxy-4-methyl-5-oxopentan-2-yl)amino)-4-oxobutanoyl)-L-leucine]
LBQ657 concentration-time profile ([1]; male, Sprague-Dawley): flattened relative to AHU377 | conversion to LBQ657 ([1]; male, Sprague-Dawley): nearly complete conversion to LBQ657 | LBQ657 exposure (based on AUC values) [1]: did not decrease relative to that of AHU377 | tolerability [1]: very well tolerated | weight gain (hygroscopicity) [2]: 0.34% | Systolic blood pressure, mean ([3]; Baseline day prior to first treatment, Hour 1, groups Valsartan 30 mg/kg): 163.63 | Systolic blood pressure, mean ([3]; Baseline day prior to first treatment, Hour 3, groups Valsartan 30 mg/kg): 159.24 | Systolic blood pressure, mean ([3]; Baseline day prior to first treatment, Hour 5, groups Valsartan 30 mg/kg): 155.66 | Systolic blood pressure, mean ([3]; Baseline day prior to first treatment, Hour 7, groups Valsartan 30 mg/kg): 154.92 | Systolic blood pressure, mean ([3]; Baseline day prior to first treatment, Hour 9, groups Valsartan 30 mg/kg): 157.92 | Systolic blood pressure, mean ([3]; Baseline day prior to first treatment, Hour 11, groups Valsartan 30 mg/kg): 162.87 | Systolic blood pressure, mean ([3]; Baseline day prior to first treatment, Hour 13, groups Valsartan 30 mg/kg): 167.91 | Systolic blood pressure, mean ([3]; Baseline day prior to first treatment, Hour 15, groups Valsartan 30 mg/kg): 167.33 | Systolic blood pressure, mean ([3]; Baseline day prior to first treatment, Hour 17, groups Valsartan 30 mg/kg): 167.09 | Systolic blood pressure, mean ([3]; Baseline day prior to first treatment, Hour 19, groups Valsartan 30 mg/kg): 169.48 | Systolic blood pressure, mean ([3]; Baseline day prior to first treatment, Hour 21, groups Valsartan 30 mg/kg): 169.41 | Systolic blood pressure, mean ([3]; Baseline day prior to first treatment, Hour 23, groups Valsartan 30 mg/kg): 161.71 | Diastolic blood pressure, Mean ([3]; Baseline day, Hour 1): 111.95 | Diastolic blood pressure, Mean ([3]; Baseline day, Hour 3): 107.76 | Diastolic blood pressure, Mean ([3]; Baseline day, Hour 5): 104.17 | Diastolic blood pressure, Mean ([3]; Baseline day, Hour 7): 102.18 | Diastolic blood pressure, Mean ([3]; Baseline day, Hour 9): 105.63 | Diastolic blood pressure, Mean ([3]; Baseline day, Hour 11): 111.89 | Diastolic blood pressure, Mean ([3]; Baseline day, Hour 13): 116.86 | Diastolic blood pressure, Mean ([3]; Baseline day, Hour 15): 115.85 | Diastolic blood pressure, Mean ([3]; Baseline day, Hour 17): 116.42 | Diastolic blood pressure, Mean ([3]; Baseline day, Hour 19): 117.36 | Diastolic blood pressure, Mean ([3]; Baseline day, Hour 21): 116.95 | Diastolic blood pressure, Mean ([3]; Baseline day, Hour 23): 109.93 | Diastolic blood pressure, Mean ([3]; Dosing day 1, Hour 1): 115.05 | Diastolic blood pressure, Mean ([3]; Dosing day 1, Hour 3): 106.99 | Diastolic blood pressure, Mean ([3]; Dosing day 1, Hour 5): 104.66 | Diastolic blood pressure, Mean ([3]; Dosing day 1, Hour 7): 106.82 | Diastolic blood pressure, Mean ([3]; Dosing day 1, Hour 9): 108.88 | Diastolic blood pressure, Mean ([3]; Dosing day 1, Hour 11): 114.90 | Diastolic blood pressure, Mean ([3]; Dosing day 1, Hour 13): 116.00 | Diastolic blood pressure, Mean ([3]; Dosing day 1, Hour 15): 117.42 | Diastolic blood pressure, Mean ([3]; Dosing day 1, Hour 17): 118.42 | Diastolic blood pressure, Mean ([3]; Dosing day 1, Hour 19): 122.21 | Diastolic blood pressure, Mean ([3]; Dosing day 1, Hour 21): 115.68 | Diastolic blood pressure, Mean ([3]; Dosing day 1, Hour 23): 111.09 | Diastolic blood pressure, Mean ([3]; Dosing day 7, Hour 1): 118.61 | Diastolic blood pressure, Mean ([3]; Dosing day 7, Hour 3): 109.11 | Diastolic blood pressure, Mean ([3]; Dosing day 7, Hour 5): 108.96 | Diastolic blood pressure, Mean ([3]; Dosing day 7, Hour 7): 114.22 | Diastolic blood pressure, Mean ([3]; Dosing day 7, Hour 9): 126.44 | Diastolic blood pressure, Mean ([3]; Dosing day 7, Hour 11): 129.02 | Diastolic blood pressure, Mean ([3]; Dosing day 7, Hour 13): 131.34 | Diastolic blood pressure, Mean ([3]; Dosing day 7, Hour 15): 126.20 | Diastolic blood pressure, Mean ([3]; Dosing day 7, Hour 17): 127.80 | Diastolic blood pressure, Mean ([3]; Dosing day 7, Hour 19): 124.88 | Diastolic blood pressure, Mean ([3]; Dosing day 7, Hour 21): 116.93 | Diastolic blood pressure, Mean ([3]; Dosing day 7, Hour 23): 120.18 | effect on blood pressure ([3]; DSS rats, as compared to animals treated with vehicle alone, interim results): trend for lower blood pressure | Systolic blood pressure, mean ([3]; Dosing day 1, Hour 1, Valsartan 30 mg/kg): 164.94 | Systolic blood pressure, mean ([3]; Dosing day 1, Hour 3, Valsartan 30 mg/kg): 152.46 | Systolic blood pressure, mean ([3]; Dosing day 1, Hour 5, Valsartan 30 mg/kg): 155.79 | Systolic blood pressure, mean ([3]; Dosing day 1, Hour 7, Valsartan 30 mg/kg): 159.33 | Systolic blood pressure, mean ([3]; Dosing day 1, Hour 9, Valsartan 30 mg/kg): 166.16 | Systolic blood pressure, mean ([3]; Dosing day 1, Hour 11, Valsartan 30 mg/kg): 168.46 | Systolic blood pressure, mean ([3]; Dosing day 1, Hour 13, Valsartan 30 mg/kg): 169.35 | Systolic blood pressure, mean ([3]; Dosing day 1, Hour 15, Valsartan 30 mg/kg): 169.78 | Systolic blood pressure, mean ([3]; Dosing day 1, Hour 17, Valsartan 30 mg/kg): 174.28 | Systolic blood pressure, mean ([3]; Dosing day 1, Hour 19, Valsartan 30 mg/kg): 166.11 | Systolic blood pressure, mean ([3]; Dosing day 1, Hour 21, Valsartan 30 mg/kg): 162.24 | Systolic blood pressure, mean ([3]; Dosing day 1, Hour 23, Valsartan 30 mg/kg): 158.31 | Systolic blood pressure, mean ([3]; Dosing day 7, Hour 1, Valsartan 30 mg/kg): 167.78 | Systolic blood pressure, mean ([3]; Dosing day 7, Hour 3, Valsartan 30 mg/kg): 158.75 | Systolic blood pressure, mean ([3]; Dosing day 7, Hour 5, Valsartan 30 mg/kg): 156.95 | Systolic blood pressure, mean ([3]; Dosing day 7, Hour 7, Valsartan 30 mg/kg): 165.23 | Systolic blood pressure, mean ([3]; Dosing day 7, Hour 9, Valsartan 30 mg/kg): 176.77 | Systolic blood pressure, mean ([3]; Dosing day 7, Hour 11, Valsartan 30 mg/kg): 182.56 | Systolic blood pressure, mean ([3]; Dosing day 7, Hour 13, Valsartan 30 mg/kg): 182.29 | Systolic blood pressure, mean ([3]; Dosing day 7, Hour 15, Valsartan 30 mg/kg): 175.64 | Systolic blood pressure, mean ([3]; Dosing day 7, Hour 17, Valsartan 30 mg/kg): 179.39 | Systolic blood pressure, mean ([3]; Dosing day 7, Hour 19, Valsartan 30 mg/kg): 175.46 | Systolic blood pressure, mean ([3]; Dosing day 7, Hour 21, Valsartan 30 mg/kg): 165.83 | Systolic blood pressure, mean ([3]; Dosing day 7, Hour 23, Valsartan 30 mg/kg): 170.13
